From US20210255193A1, “LYSINE REACTIVE PROBES AND USES THEREOF” (The Scripps Research Institute, priority 2017, published 2021)

Key:
Test in all cases: competitive isoTOP-ABPP
[1] = molecular target: T1, GABARAPL2 Gamma-aminobutyric acid receptor-associated protei (Homo sapiens, UniProt P60520); format: binding; conditions: 50 uM, in vitro; for R value (DMSO/fragment) for probe 1 labeling: P60520_K46; for R value (DMSO/fragment) for probe 1 labeling / isoTOP-ABPP reactivity ratio at lysine P60520_K46: 231 sol
T1 construct: isoTOP-ABPP experiments performed in cell lysates (in vitro); endogenous in cells; host or cells: soluble proteome of human cancer cell lines (MDA-MB-231, Ramos, Jurkat)
Outline: (§1)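 Fragments at 50 μM (activated esters) or 100 μM (guanidinylating agents) were incubated with 0.5 ml lysate before probe labeling. After 0.1 mM STP-alkyne for 1 h, samples were clicked to isotopically distinct TEV tags, and R taken as DMSO-over-compound MS1 peak-area ratio.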

[2] = molecular target: T2, NLN Neurolysin, mitochondrial (Homo sapiens, UniProt Q9BYT8); format: binding; conditions: 50 uM, in vitro; for R value (DMSO/fragment) for probe 1 labeling: Q9BYT8_K253; for R value (DMSO/fragment) for probe 1 labeling / isoTOP-ABPP reactivity ratio at lysine Q9BYT8_K253: 231 sol
T2 construct: isoTOP-ABPP experiments performed in cell lysates (in vitro); endogenous in cells; host or cells: soluble proteome of human cancer cell lines (MDA-MB-231; Ramos and Jurkat also prepared)
Outline: as §1

[3] = molecular target: T3, RPS10 40S ribosomal protein S10 (Homo sapiens, UniProt P46783); format: binding; conditions: 50 uM, 231 sol, in vitro; for R value (DMSO/fragment) for probe 1 labeling: P46783_K139
T3 construct: isoTOP-ABPP experiments performed in cell lysates (in vitro); endogenous in cells; host or cells: soluble proteome of human cancer cell lines (MDA-MB-231; Ramos and Jurkat also prepared)
Outline: as §1

[4] = molecular target: T4, NONO Non-POU domain-containing octamer-binding protein (Homo sapiens, UniProt Q15233); conditions: 50 uM, 231 sol, in vitro
T4 construct: isoTOP-ABPP experiments performed in cell lysates (in vitro); endogenous in cells; host or cells: soluble proteome of human cancer cell lines (MDA-MB-231; Ramos and Jurkat also prepared)
T4 sequence (Q15233 1-471): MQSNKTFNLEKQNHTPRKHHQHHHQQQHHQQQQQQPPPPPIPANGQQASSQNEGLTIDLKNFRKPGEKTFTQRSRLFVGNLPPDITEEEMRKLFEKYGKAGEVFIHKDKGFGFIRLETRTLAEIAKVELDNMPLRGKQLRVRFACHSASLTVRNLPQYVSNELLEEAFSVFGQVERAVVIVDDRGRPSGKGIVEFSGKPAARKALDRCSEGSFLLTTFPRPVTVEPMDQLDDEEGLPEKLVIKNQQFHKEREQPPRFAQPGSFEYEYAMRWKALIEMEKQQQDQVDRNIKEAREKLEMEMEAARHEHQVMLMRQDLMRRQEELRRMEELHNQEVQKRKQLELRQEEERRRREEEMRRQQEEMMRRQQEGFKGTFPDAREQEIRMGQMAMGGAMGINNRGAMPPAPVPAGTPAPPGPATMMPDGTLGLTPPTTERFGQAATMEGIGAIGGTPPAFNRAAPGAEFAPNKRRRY
Outline: as §1

[5] = molecular target: T5, SLC25A5 ADP/ATP translocase 2 (Homo sapiens, UniProt P05141); format: binding; conditions: 50 uM, in vitro; for isoTOP-ABPP reactivity ratio at lysine P05141_K23: 231 sol; for isoTOP-ABPP ratio (R) at liganded lysine P05141_K23: sol, 231
T5 construct: isoTOP-ABPP experiments performed in cell lysates (in vitro); endogenous in cells; host or cells: MDA-MB-231 soluble lysate
T5 sequence (P05141 1-298): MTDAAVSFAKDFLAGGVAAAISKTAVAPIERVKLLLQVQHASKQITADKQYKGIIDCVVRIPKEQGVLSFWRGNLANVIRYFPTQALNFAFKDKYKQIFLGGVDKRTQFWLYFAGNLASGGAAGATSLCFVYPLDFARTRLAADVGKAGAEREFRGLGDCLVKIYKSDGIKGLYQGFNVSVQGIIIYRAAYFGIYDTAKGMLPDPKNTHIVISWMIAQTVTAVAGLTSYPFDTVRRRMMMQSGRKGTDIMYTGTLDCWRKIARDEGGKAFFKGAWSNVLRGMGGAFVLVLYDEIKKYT
Outline: as §1

T1 sequence (P60520 1-116 limits assumed): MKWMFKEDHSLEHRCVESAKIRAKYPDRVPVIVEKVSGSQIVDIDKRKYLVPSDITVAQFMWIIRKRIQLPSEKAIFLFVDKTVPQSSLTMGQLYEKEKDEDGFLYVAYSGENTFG
T2 sequence (Q9BYT8 38-704): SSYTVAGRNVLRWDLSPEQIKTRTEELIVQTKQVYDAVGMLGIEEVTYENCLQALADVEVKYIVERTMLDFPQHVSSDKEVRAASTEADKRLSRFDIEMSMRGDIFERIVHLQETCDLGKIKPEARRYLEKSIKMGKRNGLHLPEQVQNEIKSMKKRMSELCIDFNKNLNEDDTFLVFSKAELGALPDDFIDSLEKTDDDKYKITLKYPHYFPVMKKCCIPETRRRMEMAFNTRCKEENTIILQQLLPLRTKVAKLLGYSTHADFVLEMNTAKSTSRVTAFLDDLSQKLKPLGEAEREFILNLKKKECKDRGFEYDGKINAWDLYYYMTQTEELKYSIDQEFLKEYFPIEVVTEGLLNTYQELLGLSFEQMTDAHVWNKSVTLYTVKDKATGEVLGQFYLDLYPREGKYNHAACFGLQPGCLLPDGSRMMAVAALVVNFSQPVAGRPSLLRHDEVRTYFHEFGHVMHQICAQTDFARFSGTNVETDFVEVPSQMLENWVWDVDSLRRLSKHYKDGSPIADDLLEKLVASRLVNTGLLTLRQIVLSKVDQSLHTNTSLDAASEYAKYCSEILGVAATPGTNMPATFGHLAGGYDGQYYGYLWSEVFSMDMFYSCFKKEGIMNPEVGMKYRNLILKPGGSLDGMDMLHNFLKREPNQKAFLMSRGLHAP

Row | SMILES | isoTOP-ABPP reactivity ratio at lysine P46783_K139 [3] | isoTOP-ABPP reactivity ratio at lysine P60520_K46 [1] | isoTOP-ABPP reactivity ratio at lysine Q9BYT8_K253 [2] | isoTOP-ABPP reactivity ratio at lysine P05141_K23 [5] | also measured
1 | O=C(CCc1cn(-c2ccccc2)nc1-c1ccccc1)Oc1c(F)c(F)c(F)c(F)c1F [fragment 19, Pentafluorophenyl 3-(1,3-diphenyl-1H-pyrazol-4-yl)propanoate] |  |  |  |  | R value (DMSO/fragment) for probe 1 labeling [1]: 1.2; R value (DMSO/fragment) for probe 1 labeling [2]: 1.0; R value (DMSO/fragment) for probe 1 labeling [3]: 1.0
2 | Cn1cc(CC(=O)Oc2c(F)c(F)c(F)c(F)c2F)c2ccccc21 [fragment 22, Pentafluorophenyl 2-(1-methyl-1H-indol-3-yl)acetate] |  |  |  |  | R value (DMSO/fragment) for probe 1 labeling [1]: 0.8; R value (DMSO/fragment) for probe 1 labeling [2]: 1.5; R value (DMSO/fragment) for probe 1 labeling [3]: 0.9
3 | O=C(Oc1c(F)c(F)c(F)c(F)c1F)C1CCN(C(=O)OCc2ccccc2)CC1 [fragment 24, 1-Benzyl 4-(pentafluorophenyl) piperidine-1,4-dicarboxylate] | 1.2 |  |  |  | isoTOP-ABPP reactivity ratio at lysine Q15233_K467 [4]: 1.0
4 | O=C(Oc1c(F)c(F)c(F)c(F)c1F)c1ccc2ccccc2n1 [fragment 25, Pentafluorophenyl quinoline-2-carboxylate] |  | 1.2 | 0.9 |  | 
5 | O=C(CCc1coc2cc(F)ccc2c1=O)Oc1c(F)c(F)c(F)c(F)c1F [fragment 26, Pentafluorophenyl 3-(7-fluoro-4-oxo-4H-chromen-3-yl)propanoate] | 1.0 |  | 1.2 |  | 
6 | CCn1cc(C(=O)Oc2c(F)c(F)c(F)c(F)c2F)c(=O)c2ccc(C)nc21 [fragment 28, Pentafluorophenyl 1-ethyl-7-methyl-4-oxo-1,4-dihydro-1,8-naphthyridine-3-carboxylate] |  |  |  | 1.0 | 
7 | O=C(CCc1cn(-c2ccccc2)nc1-c1ccccc1)Oc1ccc([N+](=O)[O-])cc1[N+](=O)[O-] [fragment 29, 2,4-Dinitrophenyl 3-(1,3-diphenyl-1H-pyrazol-4-yl)propanoate] | 20.0 | 0.9 | 1.0 | 1.5 | 
8 | O=C(Oc1ccc([N+](=O)[O-])cc1[N+](=O)[O-])C(c1ccccc1)c1ccccc1 [fragment 30, 2,4-Dinitrophenyl 2,2-diphenylacetate] | 1.2 |  | 1.3 | 2.2 | 
9 | O=C(Oc1ccc([N+](=O)[O-])cc1[N+](=O)[O-])c1cc(C(F)(F)F)cc(C(F)(F)F)c1 [fragment 31, 2,4-Dinitrophenyl 3,5-bis(trifluoromethyl)benzoate] |  | 1.2 | 1.5 | 1.5 | isoTOP-ABPP reactivity ratio at lysine Q15233_K467 [4]: 1.3
10 | Cn1cc(CC(=O)Oc2ccc([N+](=O)[O-])cc2[N+](=O)[O-])c2ccccc21 [fragment 32, 2,4-Dinitrophenyl 2-(1-methyl-1H-indol-3-yl)acetate] |  | 1.1 | 1.7 | 1.8 | isoTOP-ABPP reactivity ratio at lysine Q15233_K467 [4]: 1.2
11 | O=C(Oc1ccc([N+](=O)[O-])cc1[N+](=O)[O-])C1CCN(C(=O)OCc2ccccc2)CC1 [fragment 34, 1-Benzyl 4-(2,4-dinitrophenyl) piperidine-1,4-dicarboxylate] |  |  |  |  | isoTOP-ABPP ratio (R) at liganded lysine P05141_K23 [5]: 1.1
12 | O=C(Oc1ccc([N+](=O)[O-])cc1[N+](=O)[O-])c1ccc2ccccc2n1 [fragment 35, 2,4-Dinitrophenyl quinoline-2-carboxylate] |  |  |  |  | isoTOP-ABPP ratio (R) at liganded lysine P60520_K46 ([1]; sol, 231): 0.9; isoTOP-ABPP ratio (R) at liganded lysine Q9BYT8_K253 ([2]; sol, 231): 1.1; isoTOP-ABPP ratio (R) at liganded lysine P05141_K23 [5]: 1.1
